Measured values published in patent publication US7427627B2, “N-(4-(4-methylthiazol-5-yl) pyrimidin-2-yl)-N-phenylamines as antiproliferative compounds” (Cyclacel Limited, priority 2001, dated 2008).
Where two headings read alike, the source gives them in different places.

Assays:
[1] = test system: Messa-Dx5; experiment: 72-h MTT assay, Messa-Dx5; assay type: cell-based; conditions: Homo sapiens, MES-SA/Dx5, 72 h, read-out: 72-h MTT IC50 Messa-Dx5; Table 3; Uterine
Method: (§1) The compounds from the examples above were subjected to a standard cellular proliferation assay using human tumour cell lines obtained from the ATCC (American Type Culture Collection, 10801 University Boulevard, Manessas, Va. 20110-2209, USA). Standard 72-h MTT (thiazolyl blue; 3-[4,5-dimethylthiazol-2-yl]-2,5-diphenyltetrazolium bromide) assays were performed (Haselsberger, K.; Peterson, D. C.; Thomas, D. G.; Darling, J. L. Anti Cancer Drugs 1996, 7, 331-8; Loveland, B. E.; Johns, T. G.; Mackay, I. R.; Vaillant, F.; Wang, Z. X.; Hertzog, P. J. Biochemistry International 1992, 27, 501-10). In short: cells were seeded into 96-well plates according to doubling time and incubated overnight at 37° C. Test compounds were made up in DMSO and a 1/3 dilution series prepared in 100 μL cell media, added to cells (in triplicates) and incubated for 72 ho at 37° C. MTT was made up as a stock of 5 mg/mL in cell media and filter-sterilised. Media was removed from cells followed by a wash with 200 μL PBS. MTT solution was then added at 20 μL per well and incubated in the dark at 37° C. for 4 h. MTT solution was removed and cells again washed with 200 μL PBS. MTT dye was solubilised with 200 μL per well of DMSO with agitation.

[2] = test system: HL60; experiment: 72-h MTT assay, HL60; assay type: cell-based; conditions: Homo sapiens, HL-60, 72 h, read-out: 72-h MTT IC50 HL60; Table 3; Promyelocytic leukaemia
Method: as §1

[3] = test system: IMR-90; experiment: 72-h MTT assay, IMR-90; assay type: cell-based; conditions: Homo sapiens, IMR-90, 72 h, read-out: 72-h MTT IC50 IMR-90; Table 3; Foetal lung fibroblast (non-transformed)
Method: as §1

[4] = test system: SKUT-1B; experiment: 72-h MTT assay, SKUT-1B; assay type: cell-based; conditions: Homo sapiens, Skut1B, read-out: 72-h MTT IC50 SKUT-1B, Table 3, Leiomyosarcoma
Method: as §1

[5] = test system: AGS; experiment: 72-h MTT assay, AGS; assay type: cell-based; conditions: Homo sapiens, read-out: 72-h MTT IC50 AGS, Table 3, Gastric adenocarcinoma
Method: as §1

[6] = test system: CCRF-CEM; experiment: 72-h MTT assay, CCRF-CEM; assay type: cell-based; conditions: Homo sapiens, read-out: 72-h MTT IC50 CCRF-CEM, Table 3, Leukaemia
Method: as §1

[7] = test system: Saos-2; experiment: 72-h MTT cytotoxicity assay, Saos-2; assay type: cell-based; conditions: Homo sapiens
Method: as §1

[8] = test system: HCT-116; experiment: 72-h MTT assay, HCT-116; assay type: cell-based; conditions: Homo sapiens, HCT-116, 72 h, read-out: 72-h MTT IC50 HCT-116; Table 3; Colon
Method: as §1

[9] = test system: Hs27; experiment: 72-h MTT assay, Hs27; assay type: cell-based; conditions: Homo sapiens, HS27, 72 h, read-out: 72-h MTT IC50 Hs27; Table 3; Foreskin fibroblast (non-transformed)
Method: as §1

[10] = test system: H1299; experiment: 72-h MTT assay, H1299; assay type: cell-based; conditions: Homo sapiens, NCI-H1299, 72 h, read-out: 72-h MTT IC50 H1299; Table 3; Lung
Method: as §1

[11] = test system: tumour cells; experiment: 72-h MTT assay, mean over tumour cell lines; assay type: cell-based; conditions: Homo sapiens, Table 3
Method: as §1

[12] = test system: MCF-7; experiment: 72-h MTT assay, MCF-7; assay type: cell-based; conditions: Homo sapiens, MCF7, 72 h, read-out: 72-h MTT IC50 MCF-7; Table 3; Breast
Method: as §1

[13] = test system: WI38; experiment: 72-h MTT assay, WI38; assay type: cell-based; conditions: Homo sapiens, WI-38, 72 h, read-out: 72-h MTT IC50 WI38; Table 3; Foetal lung (non-transformed)
Method: as §1

[14] = test system: U2OS; experiment: 72-h MTT assay, U2OS; assay type: cell-based; conditions: Homo sapiens, read-out: 72-h MTT IC50 U2OS, Table 3, Bone osteosarcoma
Method: as §1

[15] = test system: HT29; experiment: 72-h MTT cytotoxicity assay, HT29; assay type: cell-based; conditions: Homo sapiens
Method: as §1

[16] = test system: Lovo; experiment: 72-h MTT assay, Lovo; assay type: cell-based; conditions: Homo sapiens, read-out: 72-h MTT IC50 Lovo, Table 3, Colon
Method: as §1

[17] = test system: Hela; experiment: 72-h MTT assay, Hela; assay type: cell-based; conditions: Homo sapiens, read-out: 72-h MTT IC50 Hela, Table 3, Cervix
Method: as §1

[18] = test system: Messa; experiment: 72-h MTT assay, Messa; assay type: cell-based; conditions: Homo sapiens, MES-SA, read-out: 72-h MTT IC50 Messa, Table 3, Uterine
Method: as §1

[19] = test system: SJSA-1; experiment: 72-h MTT assay, SJSA-1; assay type: cell-based; conditions: Homo sapiens, SJSA-1, 72 h, read-out: 72-h MTT IC50 SJSA-1; Table 3; Osteogenic sarcoma
Method: as §1

[20] = test system: SKUT-1; experiment: 72-h MTT assay, SKUT-1; assay type: cell-based; conditions: Homo sapiens, SK-UT-1, 72 h, read-out: 72-h MTT IC50 SKUT-1; Table 3; Leiomyosarcoma
Method: as §1

[21] = target: T1, CDK2/cyclin E (Homo sapiens, UniProt P24941); experiment: Kinase assay CDK2/cyclin E; assay type: biochemical; conditions: Table 1; read-out: Kinase inhibition, IC50 (μM) CDK2/E
T1 construct: His6

[22] = test system: SK-N-MC; experiment: 72-h MTT assay, SK-N-MC; assay type: cell-based; conditions: Homo sapiens, read-out: 72-h MTT IC50 SK-N-MC, Table 3, Neuroblastoma
Method: as §1

[23] = test system: DU-145; experiment: 72-h MTT assay, DU-145; assay type: cell-based; conditions: Homo sapiens, DU-145, 72 h, read-out: 72-h MTT IC50 DU-145; Table 3; Prostate
Method: as §1

[24] = test system: Hacat; experiment: 72-h MTT assay, Hacat; assay type: cell-based; conditions: Homo sapiens, read-out: 72-h MTT IC50 Hacat, Table 3, Skin keratinocytes
Method: as §1

[25] = test system: K562; experiment: 72-h MTT assay, K562; assay type: cell-based; conditions: Homo sapiens, K562, 72 h, read-out: 72-h MTT IC50 K562; Table 3; Chronic myelogenous leukaemia
Method: as §1

[26] = target: CDK4/cyclin D1 (Homo sapiens, UniProt P11802); experiment: Kinase assay CDK4/cyclin D1;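 note: Enzyme: His6-tagged recombinant human CDK4 produced in baculovirus-infected Sf9 insect cells and purified by metal-chelate chromatography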
CDK4/cyclin D1, sequence (P11802 whole entry): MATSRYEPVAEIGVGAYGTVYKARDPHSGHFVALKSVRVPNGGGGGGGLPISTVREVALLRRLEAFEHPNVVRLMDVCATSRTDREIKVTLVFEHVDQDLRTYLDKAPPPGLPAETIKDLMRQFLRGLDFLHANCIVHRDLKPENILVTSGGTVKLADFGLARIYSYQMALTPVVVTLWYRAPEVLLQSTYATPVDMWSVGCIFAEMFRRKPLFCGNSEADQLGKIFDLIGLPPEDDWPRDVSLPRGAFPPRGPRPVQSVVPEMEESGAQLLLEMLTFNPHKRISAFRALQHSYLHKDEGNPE
CDK4/cyclin D1, sequence (P24385 whole entry partner): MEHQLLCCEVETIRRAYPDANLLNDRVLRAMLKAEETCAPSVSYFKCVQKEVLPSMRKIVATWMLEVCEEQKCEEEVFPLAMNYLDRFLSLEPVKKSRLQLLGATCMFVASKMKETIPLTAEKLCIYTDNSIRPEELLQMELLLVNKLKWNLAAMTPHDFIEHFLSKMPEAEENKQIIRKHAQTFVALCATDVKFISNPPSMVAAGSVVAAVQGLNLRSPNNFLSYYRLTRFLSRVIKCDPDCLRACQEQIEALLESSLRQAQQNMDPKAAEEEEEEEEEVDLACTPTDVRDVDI

[27] = test system: nci-H460; experiment: 72-h MTT assay, nci-H460; assay type: cell-based; conditions: Homo sapiens, NCI-H460, 72 h, read-out: 72-h MTT IC50 nci-H460; Table 3; Lung
Method: as §1

[28] = test system: A549; experiment: 72-h MTT cytotoxicity assay, A549; assay type: cell-based, human; conditions: Homo sapiens
Method: In short: cells were seeded into 96-well plates according to doubling time and incubated overnight at 37° C. Test compounds were made up in DMSO and a 1/3 dilution series prepared in 100 μL cell media, added to cells (in triplicates) and incubated for 72 ho at 37° C. MTT was made up as a stock of 5 mg/mL in cell media and filter-sterilised. Media was removed from cells followed by a wash with 200 μL PBS. MTT solution was then added at 20 μL per well and incubated in the dark at 37° C. for 4 h. MTT solution was removed and cells again washed with 200 μL PBS. MTT dye was solubilised with 200 μL per well of DMSO with agitation.

[29] = target: T2, CDK1-cyclin B1 complex (Homo sapiens, UniProt P06493); experiment: Kinase specificity assay CDK1/B1; assay type: biochemical; conditions: Table 2
T2 construct: His6
T2 sequence (P06493 whole entry): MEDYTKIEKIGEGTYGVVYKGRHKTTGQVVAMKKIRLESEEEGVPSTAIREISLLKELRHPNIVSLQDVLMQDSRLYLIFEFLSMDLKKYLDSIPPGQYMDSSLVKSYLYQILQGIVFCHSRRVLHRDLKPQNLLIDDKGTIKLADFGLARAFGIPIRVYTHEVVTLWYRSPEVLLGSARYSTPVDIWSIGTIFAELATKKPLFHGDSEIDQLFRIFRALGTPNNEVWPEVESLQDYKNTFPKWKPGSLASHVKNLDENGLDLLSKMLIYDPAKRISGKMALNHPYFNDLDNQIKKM
T2 sequence (P14635 whole entry partner): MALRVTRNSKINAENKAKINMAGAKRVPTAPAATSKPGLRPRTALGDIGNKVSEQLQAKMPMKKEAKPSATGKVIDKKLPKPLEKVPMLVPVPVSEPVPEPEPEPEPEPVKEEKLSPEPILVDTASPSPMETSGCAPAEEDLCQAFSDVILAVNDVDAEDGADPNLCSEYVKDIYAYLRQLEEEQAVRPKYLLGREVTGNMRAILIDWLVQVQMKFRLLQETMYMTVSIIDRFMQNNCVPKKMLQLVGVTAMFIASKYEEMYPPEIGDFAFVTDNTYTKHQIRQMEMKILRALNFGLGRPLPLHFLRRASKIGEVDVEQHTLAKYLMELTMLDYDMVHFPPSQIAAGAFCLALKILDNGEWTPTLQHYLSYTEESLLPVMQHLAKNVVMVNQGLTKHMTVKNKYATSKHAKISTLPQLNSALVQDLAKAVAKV

[30] = target: stress-activated protein kinase 2a (Homo sapiens, UniProt Q16539); experiment: Kinase specificity assay SAPK2a; assay type: biochemical; conditions: Table 2
stress-activated protein kinase 2a, sequence (Q16539 whole entry): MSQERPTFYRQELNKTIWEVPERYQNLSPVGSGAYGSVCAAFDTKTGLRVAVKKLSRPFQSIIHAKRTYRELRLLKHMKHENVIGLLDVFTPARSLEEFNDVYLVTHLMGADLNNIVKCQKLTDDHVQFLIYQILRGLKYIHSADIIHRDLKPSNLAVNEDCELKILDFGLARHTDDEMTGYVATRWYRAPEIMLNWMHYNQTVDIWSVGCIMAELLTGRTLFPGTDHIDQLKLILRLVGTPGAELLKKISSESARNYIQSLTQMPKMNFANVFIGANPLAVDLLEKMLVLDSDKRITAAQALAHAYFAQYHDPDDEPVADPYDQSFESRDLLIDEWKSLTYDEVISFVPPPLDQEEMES

[31] = target: glycogen synthase kinase 3β (Homo sapiens, UniProt P49841); experiment: Kinase specificity assay GSK3β; assay type: biochemical; conditions: Table 2
[32] = target: p70 ribosomal protein S6 kinase (Homo sapiens, UniProt P23443); experiment: Kinase specificity assay p70-S6K; assay type: biochemical; conditions: Table 2
p70 ribosomal protein S6 kinase, sequence (P23443 24-525): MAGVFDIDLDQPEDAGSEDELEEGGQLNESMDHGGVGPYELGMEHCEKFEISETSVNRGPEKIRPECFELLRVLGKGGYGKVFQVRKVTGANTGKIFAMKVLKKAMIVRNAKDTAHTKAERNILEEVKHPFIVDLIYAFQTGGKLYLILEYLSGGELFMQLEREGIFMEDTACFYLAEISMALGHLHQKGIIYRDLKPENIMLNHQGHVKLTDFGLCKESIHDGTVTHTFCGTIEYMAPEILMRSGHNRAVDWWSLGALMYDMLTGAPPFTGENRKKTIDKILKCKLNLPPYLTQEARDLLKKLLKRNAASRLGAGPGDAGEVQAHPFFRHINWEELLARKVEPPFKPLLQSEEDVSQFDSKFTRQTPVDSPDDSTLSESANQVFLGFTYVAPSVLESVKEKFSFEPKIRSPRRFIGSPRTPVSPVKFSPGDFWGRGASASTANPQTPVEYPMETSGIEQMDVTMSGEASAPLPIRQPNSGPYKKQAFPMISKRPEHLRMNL

[33] = target: calmodulin-dependent kinase II; conditions: read-out: Kinase specificity IC50 Cam-KII; Table 2
[34] = target: Ableson tyrosine kinase (Homo sapiens, UniProt P00519); experiment: Kinase specificity assay Abl; assay type: biochemical; conditions: Table 2
Ableson tyrosine kinase, sequence (P00519 whole entry): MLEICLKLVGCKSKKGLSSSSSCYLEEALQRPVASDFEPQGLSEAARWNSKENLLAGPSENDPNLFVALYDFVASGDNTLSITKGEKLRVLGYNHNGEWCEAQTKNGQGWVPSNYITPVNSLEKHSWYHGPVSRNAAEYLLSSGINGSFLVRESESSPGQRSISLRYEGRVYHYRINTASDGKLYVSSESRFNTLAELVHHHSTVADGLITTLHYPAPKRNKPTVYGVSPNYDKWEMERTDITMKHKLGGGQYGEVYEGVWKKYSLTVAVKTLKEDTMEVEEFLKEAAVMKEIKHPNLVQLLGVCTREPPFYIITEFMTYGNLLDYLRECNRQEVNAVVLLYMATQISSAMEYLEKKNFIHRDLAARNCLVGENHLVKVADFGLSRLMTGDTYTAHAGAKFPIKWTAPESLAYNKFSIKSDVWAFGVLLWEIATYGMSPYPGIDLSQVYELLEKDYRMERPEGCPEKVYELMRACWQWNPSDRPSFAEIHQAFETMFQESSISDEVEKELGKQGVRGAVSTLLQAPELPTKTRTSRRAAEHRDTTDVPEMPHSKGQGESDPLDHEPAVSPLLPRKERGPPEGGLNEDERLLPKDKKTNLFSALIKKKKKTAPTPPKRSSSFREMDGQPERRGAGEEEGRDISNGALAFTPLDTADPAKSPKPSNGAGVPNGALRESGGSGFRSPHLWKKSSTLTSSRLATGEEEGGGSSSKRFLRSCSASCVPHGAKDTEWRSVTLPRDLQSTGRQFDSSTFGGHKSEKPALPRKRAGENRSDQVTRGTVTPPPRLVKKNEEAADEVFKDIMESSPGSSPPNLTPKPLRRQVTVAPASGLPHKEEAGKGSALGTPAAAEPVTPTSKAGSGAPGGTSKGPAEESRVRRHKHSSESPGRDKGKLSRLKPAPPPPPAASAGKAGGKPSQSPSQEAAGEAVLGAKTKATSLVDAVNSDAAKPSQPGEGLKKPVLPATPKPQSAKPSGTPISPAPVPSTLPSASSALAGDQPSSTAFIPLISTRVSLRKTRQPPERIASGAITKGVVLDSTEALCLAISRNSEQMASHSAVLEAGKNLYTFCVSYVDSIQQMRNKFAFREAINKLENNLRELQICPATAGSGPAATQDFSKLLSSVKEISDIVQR

[35] = target: T3, protein kinase C α (Homo sapiens, UniProt P17252); experiment: Kinase specificity assay PKCα; assay type: biochemical; conditions: Table 2
T3 construct: His6
Method: PKCα kinase activity may be measured by the incorporation of radio-labeled phosphate in Histone 3, as described. The reaction mixture (total volume 65 μl) consist of 50 mM Tris-HCl, 1 mM Calcium acetate, 3 mM DTT, 0.03 mg/ml Phosphatidylserine, 2.4 μg/ml PMA, 0.04% NP40, 12 mM Mg/Cl, purified PKCα-100 ng, Histone 3, 0.2 mg/ml, 100 μM ATP, 0.2 μCi [γ-^32P]-ATP. The reaction is carried over 15 min at 37° C. in microplate shaker and is stopped by adding 10 μl 75 mM orthophosphoric acid and placing the plate on ice. 50 μl of the reaction mixture is transferred onto P81 filterplate and after washing off the free radioactive phosphate (3 times with 200 μl 75 mM orthophosphoric acid per well) 50 μl of scintillation liquid (Microscint 40) were added to each well and the radioactivity is measured on Scintillation counter (Topcount, HP).

[36] = target: extracellular-signal-regulated kinase 2 (Homo sapiens, UniProt P28482); experiment: Kinase specificity assay ERK-2; assay type: biochemical; conditions: Table 2
extracellular-signal-regulated kinase 2, sequence (P28482 whole entry): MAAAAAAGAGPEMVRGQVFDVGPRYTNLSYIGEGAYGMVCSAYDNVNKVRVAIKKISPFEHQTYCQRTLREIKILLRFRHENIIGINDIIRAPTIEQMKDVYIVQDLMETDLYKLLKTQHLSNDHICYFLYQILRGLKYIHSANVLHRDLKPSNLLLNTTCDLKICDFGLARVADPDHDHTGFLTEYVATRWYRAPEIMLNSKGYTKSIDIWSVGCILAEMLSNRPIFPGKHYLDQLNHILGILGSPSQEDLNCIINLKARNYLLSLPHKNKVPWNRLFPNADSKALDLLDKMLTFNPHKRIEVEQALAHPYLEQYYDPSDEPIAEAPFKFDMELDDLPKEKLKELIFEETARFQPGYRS

[37] = target: protein kinase B (Homo sapiens, UniProt P31749); experiment: Kinase specificity assay Akt/PKB; assay type: biochemical; conditions: Table 2
protein kinase B, sequence (P31749 whole entry): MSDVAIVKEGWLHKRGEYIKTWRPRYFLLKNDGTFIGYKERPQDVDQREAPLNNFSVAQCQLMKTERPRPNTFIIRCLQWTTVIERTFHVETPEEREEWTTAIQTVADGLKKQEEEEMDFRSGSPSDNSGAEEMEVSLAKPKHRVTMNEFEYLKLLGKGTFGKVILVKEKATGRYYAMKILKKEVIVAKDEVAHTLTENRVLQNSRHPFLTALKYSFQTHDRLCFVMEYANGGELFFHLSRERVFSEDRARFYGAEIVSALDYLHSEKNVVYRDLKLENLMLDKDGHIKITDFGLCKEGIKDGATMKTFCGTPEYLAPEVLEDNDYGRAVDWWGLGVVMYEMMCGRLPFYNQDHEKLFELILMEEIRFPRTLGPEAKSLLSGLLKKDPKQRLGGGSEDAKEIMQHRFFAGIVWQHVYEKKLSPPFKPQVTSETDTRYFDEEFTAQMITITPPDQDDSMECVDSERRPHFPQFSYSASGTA

[38] = target: polo-like kinase 1 (Homo sapiens, UniProt P53350); experiment: Kinase specificity assay Plk1; assay type: biochemical; conditions: Table 2
polo-like kinase 1, sequence (P53350 whole entry): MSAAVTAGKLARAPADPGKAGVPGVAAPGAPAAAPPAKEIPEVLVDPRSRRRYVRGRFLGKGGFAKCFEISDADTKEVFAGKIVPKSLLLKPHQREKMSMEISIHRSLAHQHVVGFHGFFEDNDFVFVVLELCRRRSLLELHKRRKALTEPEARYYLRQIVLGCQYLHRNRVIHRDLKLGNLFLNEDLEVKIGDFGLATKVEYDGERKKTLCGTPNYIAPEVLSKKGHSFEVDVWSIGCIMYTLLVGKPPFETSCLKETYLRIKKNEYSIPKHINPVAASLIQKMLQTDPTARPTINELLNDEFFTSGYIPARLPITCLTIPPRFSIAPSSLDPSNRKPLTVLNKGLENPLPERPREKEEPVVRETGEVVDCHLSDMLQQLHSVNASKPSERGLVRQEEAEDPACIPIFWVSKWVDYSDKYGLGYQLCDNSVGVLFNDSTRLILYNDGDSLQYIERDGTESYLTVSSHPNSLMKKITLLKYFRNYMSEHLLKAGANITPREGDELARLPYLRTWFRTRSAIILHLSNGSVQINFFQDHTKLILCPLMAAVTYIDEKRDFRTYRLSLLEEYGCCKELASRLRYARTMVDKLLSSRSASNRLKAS

[39] = target: CDK7-cyclin H-MAT 1 complex (Homo sapiens, UniProt P50613); experiment: Kinase specificity assay CDK7/H; assay type: biochemical; conditions: Table 2
[40] = SAOS-2, 72 h, read-out: 72-h MTT IC50 Saos-2, Table 3, Bone osteosarcoma
[41] = SAOS-2, read-out: 72-h MTT in vitro IC50 (μM) Saos-2, Table 1, 72 h
[42] = HT-29, 72 h, read-out: 72-h MTT IC50 HT29, Table 3, Colon
[43] = HT-29, read-out: 72-h MTT in vitro IC50 (μM) HT29, Table 1, 72 h
[44] = A549, 72 h, read-out: 72-h MTT IC50 A549, Table 3, Lung
[45] = A549, read-out: 72-h MTT in vitro IC50 (μM) A549, Table 1, 72 h

Row | IC50 [2] | IC50 [4] | IC50 [5] | IC50 [6] | IC50 [8] | IC50 [10] | IC50 [11] | IC50 [12] | IC50 [16] | IC50 [17] | IC50 [19] | SMILES | IC50 [1] | IC50 [3] | IC50 [7, 40] | IC50 [7, 41] | IC50 [9] | IC50 [13] | IC50 [15, 42] | IC50 [15, 43] | IC50 [18] | also measured
1 | 0.07 µM | 0.04 µM | 0.3 µM | 0.26 µM | 0.28 µM | 0.27 µM | 0.28 µM | 0.19 µM | 0.13 µM | 0.14 µM | 0.85 µM | Cc1nc(N)sc1-c1ccnc(Nc2cccc(I)c2)n1 [Compound 10, [4-(2-Amino-4-methyl-thiazol-5-yl)-pyrimidin-2-yl]-(3-iodo-phenyl)-amine] | 0.13 µM | > 5 µM | 0.43 µM | 0.58 µM | > 5 µM | > 5 µM | 0.1 µM | 0.51 µM | 0.11 µM | IC50 [14]: 0.5 µM; IC50 [20]: 0.3 µM; IC50 [21]: 0.05 µM; IC50 [22]: 0.28 µM; IC50 [23]: 0.75 µM; IC50 [24]: 0.17 µM; IC50 [25]: 0.15 µM; IC50 [26]: 0.24 µM; IC50 [27]: 0.18 µM; IC50 [28, 44]: 0.6 µM; IC50 [28, 45]: 0.29 µM
2 | 2.87 µM | 0.39 µM | 1.05 µM | 0.85 µM | 0.69 µM | 0.63 µM | 1.03 µM | 4.74 µM | 0.23 µM | 0.55 µM | 1.5 µM | Cc1nc(N)sc1-c1ccnc(Nc2ccc(CCO)cc2)n1 [Compound 15, 2-{4-[4-(2-Amino-4-methyl-thiazol-5-yl)-pyrimidin-2-ylamino]-phenyl}-ethanol] | 0.14 µM | > 5 µM | 0.93 µM | 2.84 µM | > 5 µM | > 5 µM | 0.41 µM | 3.8 µM | 0.55 µM | IC50 [20]: 0.81 µM; IC50 [21]: 0.43 µM; IC50 [22]: 0.58 µM; IC50 [23]: 0.98 µM; IC50 [24]: 0.73 µM; IC50 [25]: 1.35 µM; IC50 [26]: 1.36 µM; IC50 [27]: 0.6 µM; IC50 [28, 44]: 0.95 µM; IC50 [28, 45]: 3.04 µM
3 | – | – | – | – | – | – | – | – | – | – | – | Cc1nc(C)c(-c2ccnc(Nc3ccc(N(C)C)c([N+](=O)[O-])c3)n2)s1 [Compound 25, N^4-[4-(2,4-Dimethyl-thiazol-5-yl)-pyrimidin-2-yl-]-N^1,N^1-dimethyl-2-nitro-benzene-1,4-diamine] | – | – | – | 0.35 µM | – | – | – | 0.3 µM | – | IC50 [29]: 0.12 µM; IC50 [30]: > 100 µM; IC50 [31]: 0.9 µM; IC50 [32]: 25 µM; IC50 [33]: > 100 µM; IC50 [34]: 9.9 µM; IC50 [35]: > 100 µM; IC50 [36]: > 100 µM; IC50 [37]: 61 µM; IC50 [38]: > 100 µM; IC50 [39]: 1.3 µM; IC50 ([28]; A549, 72 h, read-out: 72-h MTT in vitro IC50 (μM) A549): 0.43 µM
